Source: patent US11608335B2, “Somatostatin modulators and uses thereof” (CRINETICS PHARMACEUTICALS, INC., priority 2018, dated 2023)

Biological target: human somatostatin receptor subtype 5 (Homo sapiens, UniProt P35346)
Experiment: cAMP assay for SST5R (inhibition of cAMP via human SST5 receptor)
Experimental: cAMP Assay Protocol for SST5R:
The cells are cultured at 37° C., 5% CO2 and 95% humidity. […] The cells are incubated for 20 minutes at 37° C. […] The cells are treated with 50 μL of lysis buffer (HRTF cAMP kit, Cisbio) for 30 minutes and then the lysate is diluted to 250 μL with assay buffer. The lysate is transferred to 384-well plates and cAMP detection and visualization antibodies are added and incubated for 1-24 hours at room temperature. The time-resolved fluorescent signal is read with a Tecan M1000Pro multiplate reader. The intracellular cAMP concentrations are calculated by regression to a standard curve and are plotted vs. the concentration of the compounds of the invention and the EC50 of the compounds are calculated using standard methods. All data manipulations are in GraphPad Prism v6 or v7.

human somatostatin receptor subtype 5, sequence (P35346 whole entry): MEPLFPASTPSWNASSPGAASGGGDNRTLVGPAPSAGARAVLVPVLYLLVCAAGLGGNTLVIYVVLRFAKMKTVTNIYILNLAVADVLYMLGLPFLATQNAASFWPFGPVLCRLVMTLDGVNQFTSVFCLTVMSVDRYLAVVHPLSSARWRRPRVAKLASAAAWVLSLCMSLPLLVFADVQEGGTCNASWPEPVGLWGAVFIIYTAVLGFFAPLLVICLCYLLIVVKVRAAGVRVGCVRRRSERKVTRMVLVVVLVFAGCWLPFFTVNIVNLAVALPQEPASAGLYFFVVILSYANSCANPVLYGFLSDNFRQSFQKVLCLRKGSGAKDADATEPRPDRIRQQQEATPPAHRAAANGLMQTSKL

Structure (SMILES) | EC50
NC(=O)c1cc(-c2cncc(-c3nc4c(F)ccc(F)c4[nH]3)c2N2CC[C@H](N)C2)ccc1F [Compound 2-61, 5-{4-[(3S)-3-aminopyrrolidin-1-yl]-5-(4,7-difluoro-1H-1,3-benzodiazol-2-yl)pyridin-3-yl}-2-fluorobenzamide] | 10 to 100 nM
Cc1cc(F)cc(-c2cncc(-c3nc4c(F)cccc4n3C)c2N2CC(CN)C2)c1 [Compound 1-24, 1-{1-[3-(4-fluoro-1-methyl-1H-1,3-benzodiazol-2-yl)-5-(3-fluoro-5-methylphenyl)pyridin-4-yl]azetidin-3-yl}methanamine] | 10 to 100 nM
CN(C)C(=O)c1cccc(-c2cncc(-c3nc4cccc(F)c4[nH]3)c2N2CCC(C)(N)C2)c1 (stereo not drawn) [Compound 2-31, 3-[4-(3-amino-3-methylpyrrolidin-1-yl)-5-(4-fluoro-1H-1,3-benzodiazol-2-yl)pyridin-3-yl]-N,N-dimethylbenzamide] | 100 to 1000 nM
COc1cc(Cl)cc(-c2cncc(-c3nc4c(F)cc(F)cc4[nH]3)c2N2CC(CN)C2)c1 [Compound 1-59, 1-{1-[3-(3-chloro-5-methoxyphenyl)-5-(4,6-difluoro-1H-1,3-benzodiazol-2-yl)pyridin-4-yl]azetidin-3-yl}methanamine] | < 10 nM
COc1ccc(-c2cncc(-c3nc4c(C#N)ccnc4[nH]3)c2N2CC[C@](C)(N)C2)cc1C#N [Compound 2-179, 2-{4-[(3S)-3-mino-3-methylpyrrolidin-1-yl]-5-(3-cyano-4-methoxyphenyl)pyridin-3-yl}-1H-imidazo[4,5-b]pyridine-7-carbonitrile] | 10 to 100 nM
CC1(N)CCN(c2c(-c3cccc(-n4cccn4)c3)cncc2-c2nc3cccc(F)c3[nH]2)C1 (stereo not drawn) [Compound 2-16, 1-[3-(4-fluoro-1H-1,3-benzodiazol-2-yl)-5-[3-(1H-pyrazol-1-yl)phenyl]pyridin-4-yl]-3-methylpyrrolidin-3-amine] | 10 to 100 nM
CCCn1c(-c2cncc(-c3cc(F)cc(C#N)c3)c2N2CC[C@H](N)C2)nc2ccccc21 [Compound 2-111, 3-{4-[(3S)-3-aminopyrrolidin-1-yl]-5-(1-propyl-1H-1,3-benzodiazol-2-yl)pyridin-3-yl}-5-fluorobenzonitrile] | 10 to 100 nM
N[C@H]1CCN(c2c(-c3ccc4c(c3)OCC4)cncc2-c2nc3cccc(F)c3[nH]2)C1 [Compound 2-59, (3S)-1-[3-(2,3-dihydro-1-benzofuran-6-yl)-5-(4-fluoro-1H-1,3-benzodiazol-2-yl)pyridin-4-yl]pyrrolidin-3-amine] | 10 to 100 nM
Cc1ccc(F)c(-c2cncc(-c3nc4cc(F)cc(F)c4[nH]3)c2N2CC(CN)C2)c1 [Compound 1-45, 1-{1-[3-(4,6-difluoro-1H-1,3-benzodiazol-2-yl)-5-(2-fluoro-5-methylphenyl)pyridin-4-yl]azetidin-3-yl}methanamine] | 10 to 100 nM
N#Cc1cccc(-c2cncc(-c3nc4cccc(F)c4[nH]3)c2N2C[C@@H](N)[C@H](c3ccccc3)C2)c1 (racemic) [Compound 2-56, 3-{4-[trans-3-amino-4-phenylpyrrolidin-1-yl]-5-(4-fluoro-1H-1,3-benzodiazol-2-yl)pyridin-3-yl}benzonitrile] | 100 to 1000 nM
N#Cc1cc(-c2cncc(-c3nc4c(F)ccc(F)c4[nH]3)c2N2CC[C@H](N)C2)ccc1C(F)(F)F [Compound 2-48, 5-{4-[(3S)-3-aminopyrrolidin-1-yl]-5-(4,7-difluoro-1H-1,3-benzodiazol-2-yl)pyridin-3-yl}-2-(trifluoromethyl)benzonitrile] | 10 to 100 nM
N#Cc1cc(F)cc(-c2cncc(-c3nc4cccc(F)c4[nH]3)c2N2C[C@@H](N)C[C@H]2CO)c1 [Compound 2-88, 3-{4-[(2S,4S)-4-amino-2-(hydroxymethyl)pyrrolidin-1-yl]-5-(4-fluoro-1H-1,3-benzodiazol-2-yl)pyridin-3-yl}-5-fluorobenzonitrile] | > 1000 nM
Cn1c(-c2cncc(-c3cccc(C#N)c3)c2N2CC[C@](C)(N)C2)nc2c(F)cccc21 [Compound 2-153, 3-{4-[(3S)-3-amino-3-methylpyrrolidin-1-yl]-5-(4-fluoro-1-methyl-1H-1,3-benzodiazol-2-yl)pyridin-3-yl}benzonitrile] | < 10 nM
C[C@]1(N)CCN(c2c(-c3ccc(F)c(C#N)c3)cncc2-c2nc3c(C#N)ccnc3[nH]2)C1 [Compound 2-176, 2-{4-[(3S)-3-amino-3-methylpyrrolidin-1-yl]-5-(3-cyano-4-fluorophenyl)pyridin-3-yl}-1H-imidazo[4,5-b]pyridine-7-carbonitrile] | < 10 nM
Cc1ccc(-c2cncc(-c3nc4cc(F)cc(F)c4[nH]3)c2N2CC(CN)C2)cc1F [Compound 1-55, 1-{1-[3-(4,6-difluoro-1H-1,3-benzodiazol-2-yl)-5-(3-fluoro-4-methylphenyl)pyridin-4-yl]azetidin-3-yl}methanamine] | 10 to 100 nM
Cc1cccc2[nH]c(-c3cncc(-c4cc(F)cc(C#N)c4)c3N3CC[C@H](N)C3)cc12 [Compound 2-129, 3-{4-[(3S)-3-aminopyrrolidin-1-yl]-5-(4-methyl-1H-indol-2-yl)pyridin-3-yl}-5-fluorobenzonitrile] | 10 to 100 nM
Cc1cncc(-c2cncc(-c3nc4cc(F)cc(F)c4[nH]3)c2N2CC(CN)C2)c1 [Compound 1-32, 1-{1-[5-(4,6-difluoro-1H-1,3-benzodiazol-2-yl)-5′-methyl-[3,3′-bipyridin]-4-yl]azetidin-3-yl}methanamine] | 100 to 1000 nM

Structure (SMILES) | EC50
CCc1cccc2[nH]c(-c3cncc(-c4cccc(C#N)c4)c3N3CC[C@H](N)C3)nc12 [Compound 2-100, 3-{4-[(3S)-3-aminopyrrolidin-1-yl]-5-(4-ethyl-1H-1,3-benzodiazol-2-yl)pyridin-3-yl}benzonitrile] | < 10 nM
CC1(N)CCN(c2c(-c3ccnc(N)c3)cncc2-c2nc3cccc(F)c3[nH]2)C1 (stereo not drawn) [Compound 2-15, 4-(3-amino-3-methylpyrrolidin-1-yl)-5-(4-fluoro-1H-1,3-benzodiazol-2-yl)-[3,4′-bipyridin]-2′-amine] | 10 to 100 nM
NCC1CN(c2c(-c3ccc4cc[nH]c4c3)cncc2-c2nc3cc(F)cc(F)c3[nH]2)C1 [Compound 1-35, 1-{1-[3-(4,6-difluoro-1H-1,3-benzodiazol-2-yl)-5-(1H-indol-6-yl)pyridin-4-yl]azetidin-3-yl}methanamine] | > 1000 nM
COc1ccc2nc(-c3cncc(-c4cc(F)cc(Cl)c4)c3N3CC[C@H](N)C3)[nH]c2c1 [Compound 2-104, (3S)-1-[3-(3-chloro-5-fluorophenyl)-5-(5-methoxy-1H-1,3-benzodiazol-2-yl)pyridin-4-yl]pyrrolidin-3-amine] | 10 to 100 nM
Cc1ccc(F)c2[nH]c(-c3cncc(-c4ccnc(C(N)=O)c4)c3N3CC[C@H](N)C3)nc12 [Compound 2-107, 4-[(3S)-3-aminopyrrolidin-1-yl]-5-(7-fluoro-4-methyl-1H-1,3-benzodiazol-2-yl)-[3,4′-bipyridine]-2′-carboxamide] | > 1000 nM
Cn1c(-c2cncc(-c3ccc(F)c(C#N)c3)c2N2CC[C@H](N)C2)nc2cccc(Cl)c21 [Compound 2-133, 5-{4-[(3S)-3-aminopyrrolidin-1-yl]-5-(7-chloro-1-methyl-1H-1,3-benzodiazol-2-yl)pyridin-3-yl}-2-fluorobenzonitrile] | < 10 nM
CC(N)C1CN(c2c(-c3cc(F)cc(C(F)(F)F)c3)cncc2-c2nc3c(F)cc(F)cc3[nH]2)C1 (stereo not drawn) [Compound 1-63, 1-{1-[3-(4,6-difluoro-1H-1,3-benzodiazol-2-yl)-5-[3-fluoro-5-(trifluoromethyl)phenyl]pyridin-4-yl]azetidin-3-yl}ethan-1-amine] | < 10 nM
Cc1cc(C)cc(-c2cncc(-c3nc4cc(F)cc(F)c4[nH]3)c2N2CC(CN)C2)c1 [Compound 1-19, 1-{1-[3-(4,6-difluoro-1H-1,3-benzodiazol-2-yl)-5-(3,5-dimethylphenyl)pyridin-4-yl]azetidin-3-yl}methanamine] | 10 to 100 nM
COc1ccc2[nH]c(-c3cncc(-c4cc(C)cc(F)c4)c3N3CC(CN)C3)nc2c1 [Compound 1-12, 1-{1-[3-(3-fluoro-5-methylphenyl)-5-(5-methoxy-1H-1,3-benzodiazol-2-yl)pyridin-4-yl]azetidin-3-yl}methanamine] | 100 to 1000 nM
Cc1cc(C)c2[nH]c(-c3cncc(-c4ccc(F)c(C#N)c4)c3N3CC[C@](C)(N)C3)nc2n1 [Compound 2-174, 5-{4-[(3S)-3-amino-3-methylpyrrolidin-1-yl]-5-{5,7-dimethyl-1H-imidazo[4,5-b]pyridin-2-yl}pyridin-3-yl}-2-fluorobenzonitrile] | < 10 nM
Cc1cc(F)cc(-c2cncc(-c3nc4cc(C#N)c(F)cc4[nH]3)c2N2CC(CN)C2)c1 [Compound 1-17, 2-{4-[3-(aminomethyl)azetidin-1-yl]-5-(3-fluoro-5-methylphenyl)pyridin-3-yl}-6-fluoro-1H-1,3-benzodiazole-5-carbonitrile] | 100 to 1000 nM
CO/N=C/c1cccc(-c2cncc(-c3nc4cccc(F)c4[nH]3)c2N2CC[C@H](N)C2)c1 [Compound 2-12, (3S)-1-[3-(4-fluoro-1H-1,3-benzodiazol-2-yl)-5-{3-[(methoxyimino)methyl]phenyl}pyridin-4-yl]pyrrolidin-3-amine] | 10 to 100 nM
NCC1CN(c2c(-c3cccc(Cl)c3)cncc2-c2nc3c(F)cc(F)cc3[nH]2)C1 [Compound 1-53, 1-{1-[3-(3-chlorophenyl)-5-(4,6-difluoro-1H-1,3-benzodiazol-2-yl)pyridin-4-yl]azetidin-3-yl}methanamine] | < 10 nM
NC(=O)c1cc(-c2cncc(-c3nc4cccc(F)c4[nH]3)c2N2CC[C@H](N)C2)ccc1F [Compound 2-71, 5-{4-[(3S)-3-aminopyrrolidin-1-yl]-5-(4-fluoro-1H-1,3-benzodiazol-2-yl)pyridin-3-yl}-2-fluorobenzamide] | 10 to 100 nM
N#Cc1c(F)ccc(-c2cncc(-c3nc4cccc(F)c4[nH]3)c2N2CC[C@H](N)C2)c1F [Compound 2-32, 3-{4-[(3S)-3-aminopyrrolidin-1-yl]-5-(4-fluoro-1H-1,3-benzodiazol-2-yl)pyridin-3-yl}-2,6-difluorobenzonitrile] | < 10 nM
Cc1ccc(F)cc1-c1cncc(-c2nc3cc(F)cc(F)c3[nH]2)c1N1CC(CN)C1 [Compound 1-46, 1-{1-[3-(4,6-difluoro-1H-1,3-benzodiazol-2-yl)-5-(5-fluoro-2-methylphenyl)pyridin-4-yl]azetidin-3-yl}methanamine] | 10 to 100 nM
